Columns and labels:
Format in all cases: in vitro ADME
MDR1-MDCK II cell line = assay: Permeability evaluation in MDR1-MDCK II cells
Experimental: (§1) Cell line: The MDR1-MDCK II cell line authorized by Piet Borst's laboratory at the Netherlands Cancer Research Institute was used in this assay as an in vitro model for the permeability evaluation assay. The cells were inoculated in a Transwell-96 well cell plate at a density of 2.3×10^5 cells/cm^2, and cultured in a carbon dioxide incubator for 4-7 days before use in the transport assay.
(§2) The administration concentration of the test sample was 2.00 μM.
(§3) Test direction and number of parallel samples: bidirectional A-B and B-A, 2 parallels
(§4) Transport buffer (TB): HBSS solution containing 10 mM HEPES (pH 7.40±0.05)
(§5) Incubation conditions: 37±1° C., 5% CO2, incubated for 150 minutes
(§6) Control compounds: Nadolol and metoprolol were used as low-permeability and high-permeability control compounds. Digoxin was used as a substrate of P-glycoprotein. The administration concentration of nadolol and metoprolol was 2.00 μM, and the administration concentration of digoxin was 10.0 μM.
(§7) After the transport assay, the integrity of the MDR1-MDCK II cell layer was assayed by the Lucifer Yellow Rejection Assay. The remaining solution in the apical and basolateral wells was removed. 75 μL of TB containing 100 μM Lucifer Yellow was added to the apical well, and 250 μL of TB was added to the basolateral well. The cell plate was incubated in a cell culture incubator at 37±1° C., 5% CO2 and saturated humidity for 30 minutes. Then, 20 μL of sample was taken from the apical well and mixed with 60 μL of TB, and 80 μL of sample was taken from the basolateral well. The relative fluorescence unit (RFU) was measured at 425/528 nm (excitation/emission) using a microplate reader.
(§8) In this assay, the sample analysis of the test samples and control compounds of nadolol, metoprolol, and digoxin was performed by liquid chromatography-tandem mass spectrometry (LC-MS/MS). The retention time of the analytes and internal standards, chromatogram acquisition, and chromatogram integration were processed using the software Analyst (Sciex, Framingham, MA, USA). The sample analysis was semi-quantitatively determined using the peak area of analyte and the peak area of internal standard.
(§9) VR is the volume of the receiver end solution (0.075 mL for side A, and 0.25 mL for side B); Area is the relative surface area of the cell monolayer (0.0804 cm2); Time is the incubation time (9000 s); C0 is the peak area ratio of the compound at the administration end; VD is the volume of the administration end (0.075 mL for side A, and 0.25 mL for side B); CD and CR are the peak area ratios of the compound at the administration end and the receiver end, respectively.

[1] = Permeability evaluation in MDR1-MDCK II cells; details: dog
Experimental: as §1, §2, §3, §4, §5, §6, §7, §8, §9

MDR1 (P-glycoprotein) = assay: Permeability evaluation in MDR1-MDCK II cells; details: dog, pH 7.4, 2.00 μM, 150 minutes
Experimental: as §1, §2, §3, §4, §5, §6, §7, §8, §9

For `Cn1ccc2c(-c3ncc(Nc4ccc5c(n4)OC[C@@H]4COCCN54)c4c3CNC4=O)ccnc21` [Compound 4], the Efflux ratio (MDR1-MDCK II cell line; 2.00 μM, 150 minutes) was 4.97, the “Permeability Papp A to B” value (MDR1-MDCK II cell line; 2.00 μM, 150 minutes) was 5.20 10^−6 cm/s and the “Permeability Papp B to A” value (MDR1-MDCK II cell line; 2.00 μM, 150 minutes) was 25.84 10^−6 cm/s. The “Conclusion of the permeability” value (MDR1-MDCK II cell line; class by Papp) was “Medium (Medium permeability 1.0 < Papp < 5.5 (×10^−6 cm/s))”.
Work on `O=C1NCc2c(-c3cnc4cc(F)ccn34)ccc(Nc3ccc4c(n3)OC[C@@H]3COCCN43)c21` [Compound 8] yielded a Papp A→B at 150 min, 2 μM ([1]; pH 7.4, 2.00 μM, 150 minutes) of 19.7 nm/s, a Papp B→A at 150 min, 2 μM ([1]; pH 7.4, 2.00 μM, 150 minutes) of 142 nm/s and a Papp at 150 min, 2 μM ([1]; pH 7.4, class by Papp, read-out: Conclusion of the permeability) of 10 to 55 nm/s. The efflux ratio at 150 min, 2 μM (MDR1 (P-glycoprotein)) was 7.19.

Reference: US20250282798A1, “HETEROARYL-SUBSTITUTED BICYCLIC COMPOUND AND USE THEREOF” (Medshine Discovery Inc., priority 2022, published 2025)
